Results published in patent publication US9708336B2, “Metallo-beta-lactamase inhibitors” (priority 2014, dated 2017).
Like-named read-outs stand apart in the source and are kept apart here.

How the values were obtained:
NDM-1 = NDM-1 (Klebsiella pneumoniae, UniProt C7C422); test: biochemical; format: biochemical; conditions: read-out: NDM-1 IC50
IMP-1 = IMP-1 (Serratia marcescens, UniProt P52699); test: biochemical; format: biochemical; conditions: read-out: IMP-1 IC50
VIM-1 = VIM-1 (Pseudomonas aeruginosa (strain ATCC 15692 / DSM 22644 / CIP 104116 / JCM 14847 / LMG 12228 / 1C / PRS 101 / PAO1), UniProt A0A0F7KYQ8); test: Enzyme activity: determination of IC50, fluorescence assay with CCF2-FA substrate (VIM-1); format: biochemical
[1] = tested on: Escherichia coli expressing NDM-1 (CLB30005); test: Antibiotic potentiation activity: synergistic concentration (MITC95) with imipenem, OD600 growth; format: cell-based; conditions: for Escherichia coli expressing NDM-1 (CLB 30005) MITC95: concentration giving 95% inhibition of bacterial growth; for Escherichia coli MITC95: Escherichia coli expressing NDM-1 (CLB30005), 95% growth inhibition
Summary of the method: (§1)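 Clinical MBL-producing strains (E. coli NDM-1, S. marcescens IMP-1, K. pneumoniae VIM-1) from overnight plates were diluted 1:100 into 1.1×CAMHB. Compound was tested with imipenem at 4 μg/ml (optionally 1 μg/ml) or without it. After 22–24 h at 35 °C, growth was read as OD600.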

[2] = tested on: Klebsiella pneumoniae expressing VIM-1 (IHMA599644); test: as above; format: cell-based; conditions: for Klebsiella pneumoniae expressing VIM-1 (IHMA 599644) MITC95: concentration giving 95% inhibition of bacterial growth; for Klebsiella pneumoniae MITC95: Klebsiella pneumoniae expressing VIM-1 (IHMA599644), 95% growth inhibition
Summary of the method: as §1

[3] = tested on: Serratia marcescens expressing IMP-1 (CL5741); test: as above; format: cell-based; conditions: for Serratia marcescens expressing IMP-1 (CL5741) MITC95: concentration giving 95% inhibition of bacterial growth; for Serratia marcescens MITC95: Serratia marcescens expressing IMP-1 (CL5741), 95% growth inhibition
Summary of the method: as §1

[4] = fluorescence assay with CCF2-FA substrate
[5] = fluorescence assay with CCF2-FA substrate, read-out: VIM-1 IC50
[6] = NDM-1 enzyme, CCF2-FA fluorescence assay
[7] = IMP-1 enzyme, CCF2-FA fluorescence assay
[8] = VIM-1 IC50, VIM-1 enzyme, CCF2-FA fluorescence assay
[9] = VIM-1 enzyme, CCF2-FA fluorescence assay, read-out: VIM-1 IC50
[10] = VIM-1 IC50, fluorescence assay with CCF2-FA substrate

Chain of NDM-1 (C7C422 whole entry, looked up, species assumed): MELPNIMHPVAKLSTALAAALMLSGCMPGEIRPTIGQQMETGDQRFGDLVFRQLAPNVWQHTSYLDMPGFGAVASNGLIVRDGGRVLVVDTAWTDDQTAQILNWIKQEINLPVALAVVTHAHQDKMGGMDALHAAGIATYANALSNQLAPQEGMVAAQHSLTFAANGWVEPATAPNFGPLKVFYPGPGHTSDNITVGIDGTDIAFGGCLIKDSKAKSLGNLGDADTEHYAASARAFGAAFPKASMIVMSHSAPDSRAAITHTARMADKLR
Chain of IMP-1 (P52699 whole entry, looked up): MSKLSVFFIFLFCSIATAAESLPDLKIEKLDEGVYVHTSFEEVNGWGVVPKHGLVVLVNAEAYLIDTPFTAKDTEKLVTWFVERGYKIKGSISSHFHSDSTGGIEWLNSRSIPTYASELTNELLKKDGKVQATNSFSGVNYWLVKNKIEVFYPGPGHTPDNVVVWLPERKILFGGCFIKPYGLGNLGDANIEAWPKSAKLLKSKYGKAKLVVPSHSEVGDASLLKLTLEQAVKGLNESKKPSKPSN

NS(=O)(=O)c1cccc(-c2cnc(N3CCOCC3)nc2)c1-c1nn[nH]n1 [Example 94, 3-(2-morpholin-4-ylpyrimidin-5-yl)-2-(2H-tetrazol-5-yl)benzenesulfonamide]
IC50 (NDM-1; [4]): 6.32 nM
IC50 (IMP-1; [4]): 164 nM
IC50 (VIM-1; [5]): 234 nM
Escherichia coli expressing NDM-1 (CLB 30005) MITC95 [1]: 2.344 µM
Klebsiella pneumoniae expressing VIM-1 (IHMA 599644) MITC95 [2]: 100 µM
Serratia marcescens expressing IMP-1 (CL5741) MITC95 [3]: 12.5 µM

Cc1ccc(-c2ccnc(S(N)(=O)=O)c2-c2nnn[nH]2)cc1 [Example 190, 3-(1H-Tetrazol-5-yl)-4-(p-tolyl)pyridine-2-sulfonamide]
IC50 (NDM-1; [4]): 232 nM
IC50 (IMP-1; [4]): 3150 nM
IC50 (VIM-1; [5]): 1300 nM
Escherichia coli expressing NDM-1 (CLB 30005) MITC95 [1]: 10.42 µM
Klebsiella pneumoniae expressing VIM-1 (IHMA 599644) MITC95 [2]: >200 µM
Serratia marcescens expressing IMP-1 (CL5741) MITC95 [3]: 100 µM

NS(=O)(=O)c1cccc(-c2ccc3ccncc3c2)c1-c1nn[nH]n1 [Example 71, 3-isoquinolin-7-yl-2-(2H-tetrazol-5-yl)benzenesulfonamide]
IC50 (NDM-1; [4]): 1.22 nM
IC50 (IMP-1; [4]): 78.6 nM
IC50 (VIM-1; [5]): 14.5 nM
Escherichia coli expressing NDM-1 (CLB 30005) MITC95 [1]: 0.7813 µM
Klebsiella pneumoniae expressing VIM-1 (IHMA 599644) MITC95 [2]: 75 µM
Serratia marcescens expressing IMP-1 (CL5741) MITC95 [3]: 18.75 µM

NCCCc1ccc(-c2cccc(S(N)(=O)=O)c2-c2nnn[nH]2)cc1 [Example 305, 4′-(3-aminopropyl)-2-(1H-tetrazol-5-yl)-[1,1′-biphenyl]-3-sulfonamide]
IC50 (NDM-1; [6]): 50.2 nM
IC50 (IMP-1; [7]): 333 nM
IC50 (VIM-1; [8]): 103 nM
Escherichia coli MITC95 [1]: 1.953 µM
Klebsiella pneumoniae MITC95 [2]: 18.75 µM
Serratia marcescens MITC95 [3]: 4.688 µM

CCNC(=O)N1CCC(c2cccc(S(N)(=O)=O)c2-c2nn[nH]n2)CC1 [Example 174, N-ethyl-4-(3-sulfamoyl-2-(2H-tetrazol-5-yl)phenyl)piperidine-1-carboxamide]
IC50 (NDM-1; [4]): 4.54 nM
IC50 (IMP-1; [4]): 403 nM
IC50 (VIM-1; [5]): 262 nM
Escherichia coli expressing NDM-1 (CLB 30005) MITC95 [1]: 2.344 µM
Klebsiella pneumoniae expressing VIM-1 (IHMA 599644) MITC95 [2]: 100 µM
Serratia marcescens expressing IMP-1 (CL5741) MITC95 [3]: 12.5 µM

NS(=O)(=O)c1nncc(-c2ccc(Br)cc2)c1-c1nn[nH]n1 [Example 277, 5-(4-Bromophenyl)-4-(2H-tetrazol-5-yl)pyridazine-3-sulfonamide]
IC50 (NDM-1; [6]): 296 nM
IC50 (IMP-1; [7]): 5270 nM
IC50 (VIM-1; [9]): 1230 nM
Escherichia coli MITC95 [1]: 12.5 µM
Klebsiella pneumoniae MITC95 [2]: >200 µM
Serratia marcescens MITC95 [3]: 125 µM

NS(=O)(=O)c1cccc(C2=CCSCC2)c1-c1nn[nH]n1 [Example 62, 3-(3,6-dihydro-2H-thiopyran-4-yl)-2-(2H-tetrazol-5-yl)benzenesulfonamide]
IC50 (NDM-1; [4]): 8.47 nM
IC50 (IMP-1; [4]): 211 nM
IC50 (VIM-1; [5]): 186 nM
Escherichia coli expressing NDM-1 (CLB 30005) MITC95 [1]: 1.563 µM
Klebsiella pneumoniae expressing VIM-1 (IHMA 599644) MITC95 [2]: 100 µM
Serratia marcescens expressing IMP-1 (CL5741) MITC95 [3]: 100 µM

NS(=O)(=O)c1nccc(N2CCC3(CCNCC3)CC2)c1-c1nn[nH]n1 [Example 245, 4-(3,9-diazaspiro[5.5]undecan-3-yl)-3-(2H-tetrazol-5-yl)pyridine-2-sulfonamide]
IC50 (NDM-1; [6]): 266 nM
IC50 (IMP-1; [7]): 9780 nM
IC50 (VIM-1; [9]): 460 nM
Escherichia coli MITC95 [1]: 0.3906 µM
Klebsiella pneumoniae MITC95 [2]: 12.5 µM
Serratia marcescens MITC95 [3]: 50 µM

N#Cc1ccc2[nH]c(-c3cccc(S(N)(=O)=O)c3-c3nn[nH]n3)cc2c1 [Example 99, 3-(5-cyano-1H-indol-2-yl)-2-(2H-tetrazol-5-yl)benzenesulfonamide]
IC50 (NDM-1; [4]): 6.98 nM
IC50 (IMP-1; [4]): 208 nM
IC50 (VIM-1; [5]): 104 nM
Escherichia coli expressing NDM-1 (CLB 30005) MITC95 [1]: 9.375 µM
Klebsiella pneumoniae expressing VIM-1 (IHMA 599644) MITC95 [2]: >200 µM
Serratia marcescens expressing IMP-1 (CL5741) MITC95 [3]: 28.13 µM

Cc1nccn1-c1nc(-c2cccc(S(N)(=O)=O)c2-c2nn[nH]n2)cs1 [Example 102, 3-[2-(2-methyl-1H-imidazol-1-yl)-1,3-thiazol-4-yl]-2-(2H-tetrazol-5-yl)benzenesulfonamide]
IC50 (NDM-1; [4]): 128 nM
IC50 (IMP-1; [4]): 174 nM
IC50 (VIM-1; [5]): 524 nM
Escherichia coli expressing NDM-1 (CLB 30005) MITC95 [1]: 9.375 µM
Klebsiella pneumoniae expressing VIM-1 (IHMA 599644) MITC95 [2]: >200 µM
Serratia marcescens expressing IMP-1 (CL5741) MITC95 [3]: 53.13 µM

NS(=O)(=O)c1cccc(-c2ccc(-c3nnn[nH]3)cc2)c1-c1nn[nH]n1 [Example 72, 4′-(1H-tetrazol-5-yl)-2-(2H-tetrazol-5-yl)biphenyl-3-sulfonamide]
IC50 (NDM-1; [4]): 0.637 nM
IC50 (IMP-1; [4]): 48.7 nM
IC50 (VIM-1; [5]): 22.2 nM
Escherichia coli expressing NDM-1 (CLB 30005) MITC95 [1]: 2.344 µM
Klebsiella pneumoniae expressing VIM-1 (IHMA 599644) MITC95 [2]: 25 µM
Serratia marcescens expressing IMP-1 (CL5741) MITC95 [3]: 12.5 µM

NS(=O)(=O)c1cccc(-c2ccc(S(=O)(=O)NC3CC3)cc2)c1-c1nn[nH]n1 [Example 60, N~4~′-cyclopropyl-2-(2H-tetrazol-5-yl)biphenyl-3,4′-disulfonamide]
IC50 (NDM-1; [4]): 3.17 nM
IC50 (IMP-1; [4]): 16.5 nM
IC50 (VIM-1; [5]): 27.8 nM
Escherichia coli expressing NDM-1 (CLB 30005) MITC95 [1]: 3.906 µM
Klebsiella pneumoniae expressing VIM-1 (IHMA 599644) MITC95 [2]: 75 µM
Serratia marcescens expressing IMP-1 (CL5741) MITC95 [3]: 4.688 µM

NCCc1ccc(-c2cccc(S(N)(=O)=O)c2-c2nnn[nH]2)cn1 [Example 307, 3-(6-(2-aminoethyl)pyridin-3-yl)-2-(1H-tetrazol-5-yl)benzenesulfonamide]
IC50 (NDM-1; [6]): 174 nM
IC50 (IMP-1; [7]): 4890 nM
IC50 (VIM-1; [9]): 96.2 nM
Escherichia coli MITC95 [1]: 1.172 µM
Klebsiella pneumoniae MITC95 [2]: 12.5 µM
Serratia marcescens MITC95 [3]: 50 µM

Cc1nc(F)ccc1-c1cccc(S(N)(=O)=O)c1-c1nn[nH]n1 [Example 79, 3-(6-fluoro-2-methylpyridin-3-yl)-2-(2H-tetrazol-5-yl)benzenesulfonamide]
IC50 (NDM-1; [4]): 48.6 nM
IC50 (IMP-1; [4]): 3970 nM
IC50 (VIM-1; [10]): 60.2 nM
Escherichia coli expressing NDM-1 (CLB 30005) MITC95 [1]: 1.563 µM
Klebsiella pneumoniae expressing VIM-1 (IHMA 599644) MITC95 [2]: 25 µM
Serratia marcescens expressing IMP-1 (CL5741) MITC95 [3]: 150 µM

Cc1nc2ccccc2n1Cc1ccc(-c2cccc(S(N)(=O)=O)c2-c2nnn[nH]2)cc1 [Example 304, 4′-((2-methyl-1H-benzo[d]imidazol-1-yl)methyl)-2-(1H-tetrazol-5-yl)-[1,1′-biphenyl]-3-sulfonamide]
IC50 (NDM-1; [6]): 29.2 nM
IC50 (IMP-1; [7]): 50.3 nM
IC50 (VIM-1; [9]): 103 nM
Escherichia coli MITC95 [1]: 6.25 µM
Klebsiella pneumoniae MITC95 [2]: >200 µM
Serratia marcescens MITC95 [3]: 7.031 µM

NS(=O)(=O)c1cccc(-c2cn(S(=O)(=O)c3ccccc3)c3ncccc23)c1-c1nn[nH]n1 [Example 109, 3-[1-(phensulfonyl)-1H-pyrrolo[2,3-b]pyridin-3-yl]-2-(2H-tetrazol-5-yl)benzenesulfonamide]
IC50 (NDM-1; [4]): 2.21 nM
IC50 (IMP-1; [4]): 38.9 nM
IC50 (VIM-1; [10]): 0.637 nM
Escherichia coli expressing NDM-1 (CLB 30005) MITC95 [1]: 12.5 µM
Klebsiella pneumoniae expressing VIM-1 (IHMA 599644) MITC95 [2]: 18.75 µM
Serratia marcescens expressing IMP-1 (CL5741) MITC95 [3]: 12.89 µM

NS(=O)(=O)c1cccc(-c2ccc(C(O)CO)cc2)c1-c1nn[nH]n1 (stereo not drawn) [Example 321, 4′-(1,2-dihydroxyethyl)-2-(2H-tetrazol-5-yl)-[1,1′-biphenyl]-3-sulfonamide]
IC50 (NDM-1; [6]): 19.2 nM
IC50 (IMP-1; [7]): 93.5 nM
IC50 (VIM-1; [8]): 199 nM
Escherichia coli MITC95 [1]: 1.563 µM
Klebsiella pneumoniae MITC95 [2]: 50 µM
Serratia marcescens MITC95 [3]: 6.25 µM
